How the values were obtained:
P-gp = P-gp (Homo sapiens, UniProt P08183); details: for LE (ligand efficiency): binding free energy from IC50 per heavy atom, 310 K; for LipE (lipophilic efficiency): from pIC50 and clogP (eq 5)
P-glycoprotein (P-gp) = P-glycoprotein (P-gp) (Homo sapiens, UniProt P08183); assay: Inhibition of daunorubicin efflux in multidrug resistant CCRF-CEM vcr 1000 cells; assay type: cell-based
hERG potassium channel = details: hERG blockers from literature; cited from earlier work
[1] = pIC50 calcd, predicted from the clogP/pIC50 correlation line (Figure 2)

Sequence of P-glycoprotein (P-gp) (P08183 whole entry): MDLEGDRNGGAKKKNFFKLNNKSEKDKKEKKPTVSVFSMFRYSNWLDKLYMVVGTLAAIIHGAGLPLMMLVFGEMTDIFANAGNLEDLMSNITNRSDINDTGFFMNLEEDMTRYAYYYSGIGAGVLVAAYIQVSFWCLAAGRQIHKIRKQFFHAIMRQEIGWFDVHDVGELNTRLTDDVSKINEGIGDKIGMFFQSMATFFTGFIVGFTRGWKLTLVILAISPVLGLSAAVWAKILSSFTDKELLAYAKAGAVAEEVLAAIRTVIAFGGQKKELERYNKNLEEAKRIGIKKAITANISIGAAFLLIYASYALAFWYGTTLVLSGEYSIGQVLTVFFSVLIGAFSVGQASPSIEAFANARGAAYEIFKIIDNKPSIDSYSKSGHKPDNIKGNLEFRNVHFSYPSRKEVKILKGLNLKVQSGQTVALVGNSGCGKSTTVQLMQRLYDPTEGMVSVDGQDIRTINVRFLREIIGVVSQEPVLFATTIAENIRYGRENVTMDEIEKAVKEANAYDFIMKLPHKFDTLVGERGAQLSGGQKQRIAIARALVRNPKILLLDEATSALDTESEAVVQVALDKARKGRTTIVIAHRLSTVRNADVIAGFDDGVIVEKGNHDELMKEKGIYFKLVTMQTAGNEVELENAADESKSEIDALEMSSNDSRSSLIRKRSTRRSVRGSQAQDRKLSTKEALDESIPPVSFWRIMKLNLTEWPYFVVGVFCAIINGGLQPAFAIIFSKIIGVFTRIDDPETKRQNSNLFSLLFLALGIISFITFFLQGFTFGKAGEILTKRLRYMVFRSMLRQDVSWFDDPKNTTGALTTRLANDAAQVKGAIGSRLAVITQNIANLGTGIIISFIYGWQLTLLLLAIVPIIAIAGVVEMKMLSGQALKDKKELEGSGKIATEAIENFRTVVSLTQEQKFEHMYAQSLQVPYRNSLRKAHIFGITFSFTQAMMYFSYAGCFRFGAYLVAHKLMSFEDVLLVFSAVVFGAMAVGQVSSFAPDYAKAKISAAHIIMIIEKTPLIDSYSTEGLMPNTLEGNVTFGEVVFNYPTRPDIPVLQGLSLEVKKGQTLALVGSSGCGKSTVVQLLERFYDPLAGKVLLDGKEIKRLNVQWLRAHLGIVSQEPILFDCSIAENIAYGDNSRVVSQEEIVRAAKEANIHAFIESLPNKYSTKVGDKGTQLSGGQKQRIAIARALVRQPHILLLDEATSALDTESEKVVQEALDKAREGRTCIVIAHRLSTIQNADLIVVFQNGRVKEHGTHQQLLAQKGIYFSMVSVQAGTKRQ
Sequence of P-gp (P08183 whole entry): as above

LE (ligand efficiency) (P-gp) [kcal per heavy atom] | LipE (lipophilic efficiency) (P-gp) | Compound | other results
0.33 |  | O=C(c1ccccc1)c1ccccc1OCC(O)CN1CCCCC1 (centres unmarked) [Compound 12] | 
 |  | O=C(c1ccccc1)c1ccccc1OCC(O)CN1CCC(O)(c2ccccc2)CC1 (centres unmarked) [Compound 19] | IC50 (P-glycoprotein (P-gp); [1]): 1740 nM; factor more active than equilipophilic compound 20 (P-glycoprotein (P-gp); pairwise comparison of IC50, 19 vs 20): ~4 fold
0.35 |  | CCCNCC(O)COc1ccccc1C(=O)c1ccc(C)cc1 (centres unmarked) [Compound 20] | 
0.23 |  | O=C(c1ccccc1)c1ccccc1OCC(O)CN1CCN(CC(O)COc2ccccc2C(=O)c2ccccc2)CC1 (centres unmarked) [Compound 23] | IC50 (P-glycoprotein (P-gp); [1]): 794 nM; IC50 (P-glycoprotein (P-gp); pIC50 obs, observed, daunorubicin efflux inhibition): 53.7 nM; more active than equilipophilic compound 21 (P-glycoprotein (P-gp); pairwise comparison of IC50, 23 vs 21): about 1 order of magnitude
0.18 |  | CC(=O)c1cc(C)ccc1OCC(O)CN1CCN(CC(O)COc2ccccc2C(=O)c2ccccc2)CC1 (centres unmarked) [Compound 24, 1-[2-(3-{4-[3-(2-Benzoyl-phenoxy)-2-hydroxyl-propyl]-piperazine-1-yl}-2-hydroxy-propoxy)-5-methyl-phenyl]-ethanone] | 
0.33 | 1.84 | O=C(CCc1ccccc1)c1ccccc1OCC(O)CN1CCCCC1 (centres unmarked) [GPV005] | 
0.29 | 0.19 | CCOC/C=C/c1ccc(-c2nc(-c3ccc(NC(C)C)cc3)c(-c3ccc(NC(C)C)cc3)[nH]2)cc1 [ONT093] | 
0.22 | 1.93 | COc1cc2c(cc1OC)CN(CCc1ccc(NC(=O)c3cc(OC)c(OC)cc3NC(=O)c3cnc4ccccc4c3)cc1)CC2 [Tariquidar] | 
 |  | CN(CCOc1ccc(NS(C)(=O)=O)cc1)CCc1ccc(NS(C)(=O)=O)cc1 [dofetilide] | potency values (hERG potassium channel): < 10 nM

Compound | LE (ligand efficiency) (P-gp) [kcal per heavy atom] | LipE (lipophilic efficiency) (P-gp) | other results
O=C(CCc1ccccc1)c1ccccc1OCC(O)CN1CCC(O)(c2ccccc2)CC1 (centres unmarked) [GPV062] | 0.30 |  | 
